These results are taken from paper PMC6152057, “Multifunctional Cinnamic Acid Derivatives” (Molecules : A Journal of Synthetic Chemistry and Natural …, 2017).

Where “and” joins values, the source holds several entries; their conditions need not be identical. Equal entries are not always repeated. Entries after “also recorded” stand apart in the source; their conditions may differ.

Data set [1] is described as follows: Inhibition of linoleic acid lipid peroxidation (AAPH). The settings on record: 100 μM; AAPH-induced oxidation of sodium linoleate, pH 7.4, 37 °C; na = no activity.
Procedure: Production of conjugated diene hydro peroxide by oxidation of sodium linoleate in an aqueous solution was monitored at 234 nm. AAPH was used as a free radical initiator. Ten microliters of the 16 mM sodium linoleate solution was added to the UV cuvette containing 930 μL of 0.05 M phosphate buffer, pH 7.4 prethermostated at 37 °C. The oxidation reaction was initiated at 37 °C under air by the addition of 50 μL of 40 mM AAPH solution. 10 μL of the appropriate solutions of the tested compounds were added in the mixture. Lipid oxidation was measured in the presence of the same level of DMSO. The rate of oxidation at 37 °C was monitored by recording the increase in absorption at 234 nm caused by conjugated diene hydro peroxides [24].
Data set [2] is described as follows: Lipophilicity as RM values by RP-TLC. To be noted: MeOH:H2O (70/30), average of at least 5 measurements. It counts as physicochemical. More on the design: key: RM = log[(1/Rf) − 1]. The procedure: Reversed phase TLC (RP-TLC) was performed on silica gel plates impregnated with 5% (v/v) liquid paraffin in light petroleum ether. The mobile phase was a methanol/water mixture (70/30, v/v). The plates were developed in closed chromatography tanks saturated with the mobile phase at 24 °C. Spots were detected under UV light. RM values were determined from the corresponding Rf values (from five individual measurements) using the equation RM = log[(1/Rf) − 1] (Table 1).

The target of data set [3] is T1, soybean lipoxygenase (Glycine max, UniProt P08170).
T1 construct: purchased Sigma Chemical, Co. (St. Louis, MO, USA)
T1 sequence (P08170 1-839): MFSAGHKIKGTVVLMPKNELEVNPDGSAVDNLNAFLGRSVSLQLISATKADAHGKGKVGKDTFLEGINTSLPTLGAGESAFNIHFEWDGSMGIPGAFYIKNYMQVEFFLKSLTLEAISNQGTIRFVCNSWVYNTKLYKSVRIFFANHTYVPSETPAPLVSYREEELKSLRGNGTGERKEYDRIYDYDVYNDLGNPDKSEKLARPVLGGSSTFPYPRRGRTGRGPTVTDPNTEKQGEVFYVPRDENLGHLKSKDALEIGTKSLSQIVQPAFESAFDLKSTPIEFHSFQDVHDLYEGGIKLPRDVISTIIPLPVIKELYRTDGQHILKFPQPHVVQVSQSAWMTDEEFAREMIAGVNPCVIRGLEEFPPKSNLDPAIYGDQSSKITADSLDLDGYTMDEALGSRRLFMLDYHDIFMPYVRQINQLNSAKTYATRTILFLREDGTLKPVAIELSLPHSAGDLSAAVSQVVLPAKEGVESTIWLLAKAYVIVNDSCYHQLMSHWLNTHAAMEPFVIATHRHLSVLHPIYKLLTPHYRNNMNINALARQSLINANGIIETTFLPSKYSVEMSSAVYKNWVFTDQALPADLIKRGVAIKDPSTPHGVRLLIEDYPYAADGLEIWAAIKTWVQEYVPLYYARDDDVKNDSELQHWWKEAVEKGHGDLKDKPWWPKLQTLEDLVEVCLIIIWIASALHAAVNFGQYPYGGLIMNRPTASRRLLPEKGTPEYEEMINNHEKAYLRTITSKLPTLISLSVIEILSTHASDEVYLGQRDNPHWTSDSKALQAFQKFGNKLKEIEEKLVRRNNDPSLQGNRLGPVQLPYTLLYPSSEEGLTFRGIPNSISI
The experiment in a line: Soybean lipoxygenase inhibition in vitro (UV-based enzyme assay). Format: biochemical. To be noted: for IC50: sodium linoleate substrate, tris buffer pH 9, read-out: IC50 μΜ, inhibition of soybean lipoxygenase.
Procedure: The tested compounds were dissolved in DMSO (10 μL) and incubated at room temperature with sodium linoleate (100 mM) and 0.2 mL of enzyme solution (1/9 × 10^−4 w/v in saline) in buffer pH 9 (tris) at room temperature (final volume 1 mL). […] Several concentrations were used for the determination of IC50 values.

Data set [4] has as its target T2, trypsin (Bos taurus, UniProt P00760).
T2 construct: purchased Sigma Chemical, Co. (St. Louis, MO, USA); host or cells: bovine pancreas
T2 sequence (P00760 24-246): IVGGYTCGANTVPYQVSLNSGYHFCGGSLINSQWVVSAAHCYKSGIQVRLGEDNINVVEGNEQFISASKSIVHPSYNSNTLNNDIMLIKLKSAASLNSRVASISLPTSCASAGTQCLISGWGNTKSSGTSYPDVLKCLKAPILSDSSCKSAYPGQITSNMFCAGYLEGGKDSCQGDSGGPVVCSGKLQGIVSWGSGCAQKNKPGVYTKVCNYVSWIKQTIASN
The experiment in a line: Inhibition of trypsin induced proteolysis in vitro (modified Kunitz method). It counts as biochemical, bovine. The settings on record: for IC50: bovine albumin substrate, pH 7.6, 37 °C, read-out: IC50 μΜ, inhibition of trypsin induced proteolysis.
Procedure: All chemicals, solvents, chemical and biochemical reagents were of analytical grade and purchased from commercial sources (Merck, Merck KGaA, Darmstadt, Germany, Fluka Sigma-Aldrich Laborchemikalien GmbH, Hannover, Germany, Alfa Aesar, Karlsruhe, Germany and Sigma, St. Louis, MO, USA). Soybean lipoxygenase, pancreatic bovine trypsin, sodium linoleate, 2,2-azobis (2-amidinopropane) dihydrochloride (AAPH) were obtained from Sigma Chemical, Co. (St. Louis, MO, USA).
The test was carried out according to a modified Kunitz method. Bovine albumin was used as substrate for trypsin [24]. The reaction mixture consisted of 200 μL of 0.075 mg/mL trypsin and 780 μL of phosphate buffer pH 7.6 (including the tested compounds (20 μL in DMSO, final concentration 100 μM) preincubated at 37 °C for 20 min and then 1 mL of albumin (stock solution 6 g/100 mL in phosphate buffer 0.1 M, pH 7.6) was added and incubated at 37 °C for 30 min. After the incubation 1 mL of 5% trichloroacetic acid was added to the incubated solution to stop the enzyme’s reaction and allowed to set at room temperature for 1 h. Then the solution was filtered and the absorption of the filtered solution was measured at 280 nm.

For data set [5], the system named is L929 mouse fibroblasts cells. The experiment in a line: Cytotoxicity, propidium iodide fluorescence method. The settings on record: 24 h incubation, 1–100 μM. It counts as cell-based. The protocol:
The cytotoxicity of the synthesized derivatives was determined using the propidium iodide (PI) fluorescence method in the presence of different concentrations (1–100 μM) of these compounds. L929 mouse fibroblasts cells were used in this work since they have been previously used in the study of the pharmacological effects of antioxidant and anti-inflammatory agents. The cytotoxicity results of the new compounds against normal cells (such as the L929 fibroblasts) would give useful information as only non-cytotoxic compounds should be further evaluated as potential antioxidant drugs. The results are presented in Figure 1 in the form of the % cell survival values as propidium iodide % (PI)—values PI% for the examined compounds.
L929 mouse fibroblasts cells were cultured in EMEM supplemented with 10% horse serum, 2 mM L-glutamine, 1 mM sodium pyruvate, 0.1 mM nonessential amino acids, 1.5 g/L sodium bicarbonate and 100 μg/mL penicillin–streptomycin at 37 °C in a humidified atmosphere with 5% CO2. L929 cells were plated into 24-well plates at a density […] and allowed to attach and grow for 24 h. […] After 24 h incubation, the supernatant was removed and the cells were washed with PBS. […] The PI fluorescence (cell death) was determined with flow cytometry, FACS Calibur, Coulter Epics XL-MCL (Beckman, Inc., Mount Holly, NJ, USA). […]

A word on the IC50: it is the concentration needed to halve the response being measured. `O=C(O)/C=C/c1cccc(Oc2ccccc2)c1` [Compound 2, (E)-3-(3-phenoxyphenyl)acrylic acid]: the “ILP% @100 μΜ (% inhibition of lipid peroxidation)” value in data set [1] is reported as 84%. Besides, the “RM (±SD)” value in data set [2] is on record as −0.41 ± 0.016. In addition, in data set [3], the IC50 was 66 µM.

With `CC(C)N(CC(O)COc1cccc2ccccc12)C(=O)/C=C/c1ccccc1` (stereo not shown) [Compound 1b, (E)-N-(2-hydroxy-3-(naphthalen-1-yloxy)propyl)-N-isopropylcinnamamide], the results for the IC50 in data set [4] and in data set [3] were 10 µM and 50 µM, respectively. Further, in data set [1], the “ILP% @100 μΜ (% inhibition of lipid peroxidation)” value stood at 69%. In addition, the “Cytotoxicity on L929 cells as PI% values (in words)” value in data set [5] was “remarkable cytotoxicity”. Moreover, the “RM (±SD)” value in data set [2] is 0.411 and 0.411 ± 0.061.

As usually defined, the melting point is the temperature, or range, at which the solid turns liquid. In turn, `O=C(/C=C/c1ccccc1)OC12CC3CC(CC(C3)C1)C2` [Compound 1c, (E)-adamantan-1-yl cinnamate] came in with a melting point of 183 to 185 °C. For the same molecule, in data set [4], the half-inhibitory concentration (IC50) was 49 µM. Besides, in data set [2], the “RM (±SD)” value is 0.911 and 0.911 ± 0.0112. In data set [3], the “Soybean LOX inhibition (in words)” value is “low or no activity; also recorded: inactive”.

As to “(E)-2-(benzylamino) ethyl 3-phenylacrylate [Compound 1e]”, in data set [2], the “RM (±SD)” value is on record as −0.374 ± 0.0176. Further, in data set [3], the “Soybean LOX inhibition (in words)” value was “low or no activity” and the IC50 was 100 µM.

`Cc1c(C)c2c(c(C)c1O)CCC(C)(C(=O)O)O2` (stereo not shown) [Trolox, reference compound]: the “ILP% @100 μΜ (% inhibition of lipid peroxidation)” value in data set [1] stood at 93%.

In turn, `CC(C)N(CC(O)COc1ccc(CC(N)=O)cc1)C(=O)/C=C/c1ccccc1` (stereo not shown) [Compound 1a] displayed a melting point of 102 to 105 °C. In addition, in data set [4], the IC50 was found to be 0.315 µM. Further, in data set [1], the “ILP% @100 μΜ (% inhibition of lipid peroxidation)” value is listed as 97%. The “RM (±SD)” value in data set [2] was −0.720 and −0.720 ± 0.012. The IC50 in data set [3] was 66 µM.

Take `O=C(O)/C=C/c1ccccc1` [Compound 1, cinnamic acid]: the “ILP% @100 μΜ (% inhibition of lipid peroxidation)” value in data set [1] is 78%. Further, the “RM (±SD)” value in data set [2] is −0.485 and −0.485 ± 0.044.

In the case of `O=C(/C=C/c1ccccc1)Oc1cccc2ccccc12` [Compound 1d, (E)-naphthalen-1-yl cinnamate], the melting point was 210 to 212 °C. Also, in data set [1], the “ILP% @100 μΜ (% inhibition of lipid peroxidation)” value is “inactive”. In addition, the “RM (±SD)” value in data set [2] stood at 0.0889 ± 0.002. In addition, in data set [3], the “Soybean LOX inhibition (in words)” value is “low or no activity” and the concentration for half-maximal inhibition (IC50) was 27.5 µM.

Take `O=C(/C=C/c1ccccc1)OCCN(Cc1ccccc1)C(=O)/C=C/c1ccccc1` [Compound 1f, 2-(N-benzylcinnamamido) ethyl cinnamate]: in data set [4], the half-maximal inhibitory concentration (IC50) stood at 100 µM. Moreover, the “ILP% @100 μΜ (% inhibition of lipid peroxidation)” value in data set [1] is “inactive”. Also, the “RM (±SD)” value in data set [2] was determined as 0.1402 ± 0.0227. Also, the “Soybean LOX inhibition (in words)” value in data set [3] was “low or no activity”. Also, in data set [3] (100 μM, na = no activity under the reported experimental conditions, read-out: LOX Inh. % @ 100 μΜ), the inhibition at 100 µM was determined as 20%.

Consider `CC(C)N(CC(O)COc1ccc(CC(N)=O)cc1)C(=O)/C=C/c1cccc(Oc2ccccc2)c1` (stereo not shown) [Compound 2a], for which the values for the IC50 in data set [4] and in data set [3] were 0.325 µM and 35 µM, respectively. Also, the “ILP% @100 μΜ (% inhibition of lipid peroxidation)” value in data set [1] is reported as 86%. Also, in data set [5], the “Cytotoxicity on L929 cells as PI% values (in words)” value was “remarkable cytotoxicity”. For the same molecule, the “RM (±SD)” value in data set [2] is 0.128 ± 0.0204.

On to `COc1ccc(/C=C/C(=O)N(CC(O)COc2ccc(CC(N)=O)cc2)C(C)C)cc1OC` (stereo not shown) [Compound 3a], for which the melting point lay in the range of 176 to 178 °C. For the same molecule, the IC50 in data set [4] stood at 1 µM. In data set [1], the “ILP% @100 μΜ (% inhibition of lipid peroxidation)” value is listed as 86%. Besides, the “RM (±SD)” value in data set [2] was −0.841 and −0.841 ± 0.0014. Besides, the concentration for half-maximal inhibition (IC50) in data set [3] was 10 µM.

Molecule `CC(C)N(CC(O)COc1cccc2ccccc12)C(=O)/C=C/c1cccc(Oc2ccccc2)c1` (stereo not shown) [Compound 2b, (E)N-(2-hydroxy-3-(naphthalen-1-yloxy)propyl)-N-isopropyl-3-(3phenoxyphenyl) acrylamide] came in with a melting point of 118 to 120 °C. In data set [4], the concentration for half-maximal inhibition (IC50) came to 0.425 µM. In data set [1], the “ILP% @100 μΜ (% inhibition of lipid peroxidation)” value worked out at 84%. Further, in data set [2], the “RM (±SD)” value is 0.907 and 0.907 ± 0.008. Also, the IC50 in data set [3] turned out to be 6 µM.

Regarding `O=C(O)c1ccccc1O` [Salicylic acid, reference compound], the inhibition at 100 µM in data set [4] (100 μM, na = no activity under the reported experimental conditions, read-out: Trypsin Inh. % @100 μM) came to 53.6%.

`COc1ccc(/C=C/C(=O)N(CC(O)COc2cccc3ccccc23)C(C)C)cc1OC` (stereo not shown) [Compound 3b, (E)-3-(3,4-dimethoxyphenyl)-N-(2-hydroxy-3-(naphthalen-1-yloxy)propyl)-N-isopropylacrylamide] showed a melting point of 172 to 174 °C. Also, the IC50 in data set [4] stood at 0.516 µM. Also, the “ILP% @100 μΜ (% inhibition of lipid peroxidation)” value in data set [1] turned out to be 71%. The “RM (±SD)” value in data set [2] is 0.0819 and 0.0819 ± 0.01. In data set [3], the IC50 came out at 10 µM.

As for `CC(C)NCC(O)COc1ccc(CC(N)=O)cc1` (stereo not shown) [Atenolol, atenolol, reference compound], in data set [4], the “Anti-proteolytic activity, trypsin inhibition (in words)” value was “did not present any activity”. In addition, in data set [3], the half-inhibitory concentration (IC50) stood at 22.5 µM.

With `CC(C)N(C[C@H](O)COc1cccc2ccccc12)C(=O)/C=C/c1cccc(Oc2ccccc2)c1` [Compound S-2b, (S)-N-(2-hydroxy-3-(naphth-1-yloxy)propyl)-N-isopropyl-3-(3-phenoxyphenyl) acrylamide], the IC50 in data set [4] amounted to 2.75 µM; in data set [3], 6 µM. The “ILP% @100 μΜ (% inhibition of lipid peroxidation)” value in data set [1] amounted to 86%.

Take 3,4-dimethoxycaffeic acid [Compound 3]: the “ILP% @100 μΜ (% inhibition of lipid peroxidation)” value in data set [1] is reported as 86%. The “RM (±SD)” value in data set [2] was −0.869 ± 0.0614.
